One data set concerns Carrageenin test in rats. Briefly: anti-inflammatory activity, Carrageenin test in rats (Winter et al. 1962). It counts as in vivo, rat. Particulars: read-out: Antiinflammatory activity. The source says:
(§1) The compounds show an outstanding analgesic activity, especially upon oral application versus the brewer's yeast test in rat as described by Winter et al. (J. Pharm. Exp. Ther., 150(1), 165-171, 1965). Also these compounds have shown anti-inflammatory activity especially upon oral application versus the Carrageenin test in rats as described by Winter et al. (Proc. Soc. Exp. Biol. Med., 111, 544-547, 1962). The results for the analgesic evaluation are expressed as ED50 and those for the anti-inflammatory evaluation expressed as the activity rate observed on administering the compounds at a dose of 5 mg/kg.

A short description of data set [1]: acute oral toxicity LD50 in mice (Reed-Muench method modified by Pizzi). Particulars: mouse, in vivo; oral administration to mice; as free base. An excerpt:
Moreover, the above compounds have shown a low toxicity which makes them useful in therapy. […] Evaluation was made according to the method by Reed-Muench as modified by Pizzi (Human & Biology, 22(3), 151-190, 1950) by oral administration to mice.

The test system of data set [2] is brewer's yeast test in rat. Briefly: analgesic activity, brewer's yeast test in rat (Winter et al. 1965). Particulars: read-out: Analgesic activity ED50. The data set is classed as in vivo.
From the text: as §1

Where [3] appears, read: Carrageenin test, rat, oral, dose of 5 mg/kg, as free base.
The mark [4] stands for this setting: brewer's yeast test, rat, oral, as free base.

Like-named read-outs stand apart in the source and are kept apart here.

What is called LD50 is the dose expected to kill half of the subjects tested. Higher therefore signals a less toxic substance. The ED50 is the dose that gives a 50% effect, or the effect in half of the subjects. In the case of `O=C(OCCN1CCCCC1)c1ccccc1Nc1ccnc2cc(Cl)ccc12` [Example 3, 2-Piperidinylethyl-2-(7-chloro-4-quinolyl)aminobenzoate], the inhibition in vivo at 5 mg/kg in the data set with Carrageenin test in rats (setting [3]) was 23.1%. For the same compound, the 50% lethal dose (LD50) in data set [1] was > 2000 mg/kg. The ED50 in data set [2] (setting [4]) was 67 mg/kg.
As for `O=C(OCCOCCN1CCCCC1)c1ccccc1Nc1ccnc2cc(Cl)ccc12` [Example 9], in the data set with Carrageenin test in rats (setting [3]), the inhibition in vivo at 5 mg/kg came to 33.2%. Moreover, the ED50 in data set [2] (setting [4]) came to 21.7 mg/kg.
With `O=C(OCCN1CCCC1)c1ccccc1Nc1ccnc2cc(C(F)(F)F)ccc12` [Example 2, 2-Pyrrolidinylethyl 2-(7-trifluoromethyl-4-quinolyl)aminobenzoate], the inhibition in vivo at 5 mg/kg in the data set with Carrageenin test in rats (setting [3]) stood at 38%. The same compound returned an LD50 in data set [1] of 630 mg/kg. Also, in data set [2] (setting [4]), the ED50 came to 2.9 mg/kg.
Regarding `O=C(OCCOCCN1CCCC1)c1ccccc1Nc1ccnc2cc(C(F)(F)F)ccc12` [Example 8, 2-(2-Pyrrolidineethoxy)ethyl 2-(7-trifluoromethyl-4-quinolyl)aminobenzoate], in the data set on Carrageenin test in rats (setting [3]), the inhibition in vivo at 5 mg/kg came out at 26.2%. In addition, in data set [2] (setting [4]), the ED50 was determined as 14.7 mg/kg.
Turning to `O=C(OCCOCCN1CCCCCC1)c1ccccc1Nc1ccnc2cc(Cl)ccc12` [Example 11, 2-(2-Homopiperidineethoxy)ethyl 2-(7-chloro-4-quinolyl)aminobenzoate], the inhibition in vivo at 5 mg/kg in the data set on Carrageenin test in rats (setting [3]) stood at 21.2%. In addition, the ED50 in data set [2] (setting [4]) is 13.3 mg/kg.
As to `O=C(OCCN1CCN(c2cccc(C(F)(F)F)c2)CC1)c1ccccc1Nc1ccnc2cc(C(F)(F)F)ccc12` [Antrafenine, reference compound], in the data set on Carrageenin test in rats (Rattus norvegicus, po), the inhibition in vivo at 5 mg/kg worked out at 3.6%. The ED50 in data set [2] (Rattus norvegicus, po) worked out at 43 mg/kg.
As for `O=C(OCCOCCN1CCCC1)c1ccccc1Nc1ccnc2cc(Cl)ccc12` [Example 7, 2-(2-Pyrrolidineethoxy)ethyl 2-(7-chloro-4-quinolyl)aminobenzoate], the inhibition in vivo at 5 mg/kg in the data set on Carrageenin test in rats (setting [3]) was determined as 5.1%. The ED50 in data set [2] (setting [4]) was 18.5 mg/kg.
In the same order, the values of `O=C(OCOC(=O)c1ccccc1Nc1ccnc2cc(C(F)(F)F)ccc12)c1ccccc1` [Example 19, Benzoyloxymethyl 2-(7-trifluoromethyl-4-quinolyl)aminobenzoate] are 30.5% and 3.8 mg/kg.
Consider `O=C(OCCN1CCCCCC1)c1ccccc1Nc1ccnc2cc(C(F)(F)F)ccc12` [Example 6, 2-Homopiperidinylethyl 2-(7-trifluoromethyl-4-quinolyl)aminobenzoate], for which the inhibition in vivo at 5 mg/kg with Carrageenin test in rats (setting [3]) was found to be 27.9%. Also, the ED50 in data set [2] (setting [4]) came to 7 mg/kg.
For `O=C(OCCN1CCCCCC1)c1ccccc1Nc1ccnc2cc(Cl)ccc12` [Example 5, 2-Homopiperidinylethyl 2-(7-chloro-4-quinolyl)aminobenzoate] the same measures were 17.3% and 5.4 mg/kg.
In the same order, the values of `O=C(OCC1CCCCO1)c1ccccc1Nc1ccnc2cc(Cl)ccc12` (stereo not shown) [Example 14, 2-Tetrahydropyranylmethyl 2-(7-chloro-4-quinolyl)aminobenzoate] are 19.5% and 22 mg/kg.
For `O=C(OCOC(=O)c1ccccc1Nc1ccnc2cc(Cl)ccc12)c1ccccc1` [Example 18, Benzoyloxymethyl 2-(7-chloro-4-quinolyl)aminobenzoate] the same measures were 31% and 82.5 mg/kg.
For `O=C(OCCN1CCCC1)c1ccccc1Nc1ccnc2cc(Cl)ccc12` [Example 1, 2-Pyrrolidinylethyl 2-(7-chloro-4-quinolyl)aminobenzoate], the inhibition in vivo at 5 mg/kg in the data set on Carrageenin test in rats (setting [3]) amounted to 35.6%. Moreover, the median lethal dose (LD50) in data set [1] stood at 2000 mg/kg. Also, the ED50 in data set [2] (setting [4]) came to 38 mg/kg.
As for `O=C(OCOCc1ccccc1)c1ccccc1Nc1ccnc2cc(Cl)ccc12` [Example 16, Benzyloxymethyl 2-(7-chloro-4-quinolyl)aminobenzoate], in the data set with Carrageenin test in rats (setting [3]), the inhibition in vivo at 5 mg/kg amounted to 27.7%. Further, the median lethal dose (LD50) in data set [1] was > 8000 mg/kg. Besides, the ED50 in data set [2] (setting [4]) stood at 6.3 mg/kg.
`O=C(OCOCc1ccccc1)c1ccccc1Nc1ccnc2cc(C(F)(F)F)ccc12` [Example 17, Benzyloxymethyl 2-(7-trifluoromethyl-4-quinolyl)aminobenzoate]: the inhibition in vivo at 5 mg/kg in the data set with Carrageenin test in rats (setting [3]) was 30.5%. In data set [2] (setting [4]), the ED50 worked out at 64.5 mg/kg.
For `O=C(OC1OC(=O)c2ccccc21)c1ccccc1Nc1ccnc2cc(Cl)ccc12` (stereo not shown) [Example 20, 1(3H)-isobenzofuranone-3-yl 2-(7-chloro-4-quinolyl)aminobenzoate] the same measures were 26.2% and 71 mg/kg.
Take `CC(=O)Oc1ccccc1C(=O)O` [Acetylsalycilic acid, acetylsalicylic acid, reference compound]: in the data set with Carrageenin test in rats (Rattus norvegicus, po), the inhibition in vivo at 5 mg/kg stood at 23.2%. For the same compound, in data set [2] (setting [4]), the ED50 was determined as 73 mg/kg.
Consider `O=C(OCC(O)CO)c1ccccc1Nc1ccnc2cc(Cl)ccc12` (stereo not shown) [Glafenine, reference compound], for which, in the data set with Carrageenin test in rats (Rattus norvegicus, po), the inhibition in vivo at 5 mg/kg was 25.6%. The LD50 in data set [1] was found to be 2100 mg/kg. The ED50 in data set [2] (Rattus norvegicus, po) is 26.5 mg/kg.
On to `O=C(OCC(O)CO)c1ccccc1Nc1ccnc2c(C(F)(F)F)cccc12` (stereo not shown) [Floctafenine, reference compound], for which the inhibition in vivo at 5 mg/kg in the data set with Carrageenin test in rats (setting [3]) turned out to be 21.6%. Moreover, the ED50 in data set [2] (setting [4]) worked out at 2.2 mg/kg.
For `O=C(OCC1CCCCO1)c1ccccc1Nc1ccnc2cc(C(F)(F)F)ccc12` (stereo not shown) [Example 15, 2-Tetrahydropyranylmethyl 2-(7-trifluoromethyl-4-quinolyl)aminobenzoate] the same measures were 26.1% and 9.3 mg/kg.
With `O=C(OCCN1CCCCC1)c1ccccc1Nc1ccnc2cc(C(F)(F)F)ccc12` [Example 4, 2-Piperidinylethyl 2-(7-trifluoromethyl-4-quinolyl)aminobenzoate], the inhibition in vivo at 5 mg/kg in the data set on Carrageenin test in rats (setting [3]) came out at 23.2%. In addition, the LD50 in data set [1] was determined as 635 mg/kg. Besides, in data set [2] (setting [4]), the ED50 amounted to 3 mg/kg.
For `O=C(OC1OC(=O)c2ccccc21)c1ccccc1Nc1ccnc2cc(C(F)(F)F)ccc12` (stereo not shown) [Example 21, 1(3H)-isobenzofuranone-3-yl 2-(7-trifluoromethyl-4-quinolyl)aminobenzoate], the inhibition in vivo at 5 mg/kg in the data set on Carrageenin test in rats (setting [3]) was 38.4%. Moreover, the ED50 in data set [2] (setting [4]) stood at 26 mg/kg.
With `O=C(OCCOCCN1CCCCCC1)c1ccccc1Nc1ccnc2cc(C(F)(F)F)ccc12` [Example 12, 2-(2-Homopiperidineethoxy)ethyl 2-(7-trifluoromethyl-4-quinolyl)aminobenzoate], in the data set on Carrageenin test in rats (setting [3]), the inhibition in vivo at 5 mg/kg is 28.8%. Moreover, the ED50 in data set [2] (setting [4]) was 6.6 mg/kg.

Source of the values: patent US4767767A, “2-pyrrolidinylethyl-2-(7-trifluoromethyl-4-quinolyl-aminobenzoate having analgesic, antipyretic and anti-inflammatory activities” (Ferrer Internacional S.A., priority 1982, dated 1988).
